One assay has as its target T1, P70S6K (T412E mutant) (Homo sapiens, UniProt P23443, T412E).
T1 construct: purchased Millipore
The assay can be described thus: p70S6K Enzyme Assay. It counts as biochemical. To be noted: 24 μM ATP, 90 min at 25° C., Caliper mobility shift. On the procedure:
p70S6K inhibitor compounds were diluted and plated in 96 well plates. A reaction mixture including the following components were then added to the compound plate to initiate the enzyme reaction; P70S6K (3 nM, T412E mutant, Millipore) was mixed with 24 μM ATP in an assay buffer containing 100 mM Hepes (pH 7.5), 5 mM MgCl2, 1 mM DTT, 0.015% Brij and 1 μM of the substrate peptide FITC-AHA-AKRRRLSSLRA-OH (derived from the S6 ribosomal protein sequence, FITC=fluorescein isothiocyanate, AHA=6-aminohexanoic acid). The reaction was incubated for 90 min at 25° C., before the addition of 10 mM EDTA to stop the reaction. The proportion of substrate and product (phosphorylated) peptide was analysed on a Caliper Life Sciences Lab Chip 3000, using a pressure of −1.4 psi, and upstream and downstream voltages of −3000 and −700 respectively. Product peaks were resolved before substrate peaks on the resulting chromatograms.
To assess the inhibitory potential of the compounds, IC50-values were determined, as shown in Chemical Synthesis section above.

In another assay the target is T2, Akt1 (Homo sapiens, UniProt P31749).
T2 construct: 0.1 ng/ul His-AKT (Full Length), (Invitrogen, Part #P2999, Lot #641228C); His; purchased Invitrogen P2999
The assay is described as follows: AKT/PKB Kinase Assay. It counts as biochemical. As to conditions: His-AKT (Full Length), 160 uM ATP, 90 min at 25 C. On the procedure:
In order to measure AKT inhibition in the Caliper Life Sciences LC3000, a TTP Mosquito liquid handling instrument was used to place 125 nl of the appropriate concentration of inhibitor in 100% DMSO (for a dose response curve calculation) into each well of a 384-well plate. To this reaction components were added to a final volume of 12.5 ul: • 0.1 ng/ul His-AKT (Full Length), (Invitrogen, Part #P2999, Lot #641228C) • 160 uM ATP (Fluke, 02055) • 1 mM DTT (Sigma, D0632) • 1 mM MgCl2 (Sigma, M1028) • 1 uM substrate peptide (sequence FITC-AHA-GRPRTSSFAEG-NH2), synthesized by Tufts Peptide Synthesis service. • 100 mM HEPES pH 7.5 (Calbiochem, 391338) • 0.015% Brij-35 (Sigma, B4184)
(§1) The reaction was incubated for 90 min at 25 C, and then stopped by the addition of 70 ul of Stop buffer (100 mM HEPES pH 7.5, 0.015% Brij-35, 10 mM EDTA (Sigma, E7889)).
The plate was read on a Caliper LC 3000 in an Off-Chip mobility shift assay format, using the following parameters for a 12-sipper chip: screening pressure −2.3 psi, upstream voltage −500, and downstream voltage −3000.
These conditions cause unphosphorylated substrate and phosphorylated product peptide to resolve as separate peaks allowing direct measurement of percentage of conversion of substrate to product. The percent conversion was plotted against concentration of inhibitor to produce a sigmoidal dose response curve, from which an IC50 was calculated.

A further assay addresses T3, Aurora B (Homo sapiens, UniProt Q96GD4).
T3 construct: GST-Aurora B (1-344 amino acids); GST (N); purchased Carna Biosciences 05-102
The assay is described as follows: Aurora B Kinase Assay. It counts as biochemical. To be noted: for pIC50: GST-Aurora B (1-344), 10 uM ATP, 90 min at 25 C. On the procedure:
To measure inhibitor activity of Aurora B inhibitors in the Caliper Life Sciences LC3000, a TTP Mosquito liquid handling instrument was used to place 0.25 ul of the appropriate concentration of inhibitor in 100% DMSO (for a dose response curve calculation) into each well of a 384-well plate. To this reaction components was added to a final volume of 25 ul: • 0.1 ng/ul GST-Aurora B (1-344 amino acids), (Carna Biosciences 05-102. N-terminal GST fusion with His tagged INCEP, accession number Q96GD4). • 10 uM ATP (Fluka, 02055) • 1 mM DTT (Sigma, D0632) • 1 mM MgCl2 (Sigma, M1028) • 1 uM substrate peptide (sequence FITC-LRRASLG-(CONH2), synthesized by Tufts Peptide Synthesis service. • 100 mM HEPES pH 7.5 (Calbiochem, 391338) • 0.015% Brij-35 (Sigma, B4184)
as §1
The plate was read on a Caliper LC 3000 in an Off-Chip mobility shift assay format, using the following parameters for a 12-sipper chip: screening pressure −1.8 psi, upstream voltage −2700, downstream voltage −1000. These conditions caused unphosphorylated substrate and phosphorylated product peptide to resolve as separate peaks allowing direct measurement of percentage of conversion of substrate to product. The percent conversion was plotted against concentration of inhibitor to produce a sigmoidal dose response curve, from which an IC50 was calculated using XLFit for Microsoft Excel.

The next assay concerns pS6 MDA-MB-468. The assay can be described thus: Cellular Activity Assay (phospho-S6 in MDA-MB-468 cells). As to conditions: Homo sapiens, 2 hr compound incubation, percent pS6-positive cells; for IC50: head printed in uM. It counts as cell-based. How it is done:
MDA-MB-468 cells were grown in DMEM containing glutamine supplemented with 10% Fetal Bovine Serum (FBS) and 1× antibiotics. Cells were maintained by splitting 1:3 twice a week.
For the assay, cells were plated the evening before at a density of 4000 cells per well in black polyD lysine coated 384 well plates. Cells were incubated overnight (16 to 20 hours) in growth media. Compounds at an appropriate concentration were added to the wells and incubated for 2 hr. Controls included: i) no primary, ii) rabbit isotype, iii) propidium iodide (red) only and iv) anti-phospho-S6 antibody alone (green only). Cells were then fixed in 4% paraformaldehyde for 15-20 minutes at room temperature, then washed 3×80 ul with PBS.
50 ul 10% normal goat serum (NGS) with 0.2% triton X 100 in PBS were added and incubated for 30 to 60 minutes at room temperature. Anti-phospho-S6 antibody was diluted 1:800 2% with NGS in 0.2% TritonX-100 and 30 ul added to appropriate wells. The wells were incubated overnight at 4 degrees Celsius.
Then the wells were washed with 3×80 uL PBS. The secondary green fluorescence labeled antibody (Alexa Fluor® 488 F(ab′)2 fragment goat Anti-rabbit IgG (H+L)), was diluted 1:1500 in 2% NGS with 0.2% TritonX-100, and 30 ul were added to the appropriate wells which were then incubated in the dark at room temperature for 60 minutes. Then they were washed with 4×80 ul PBS. Propidium iodide (1.5 mM stock) was diluted 1:1000 in PBS, and 50 ul were added to the appropriate wells and incubated for 30 minutes at room temperature in the dark. Propidium iodide was not washed out. Plates were read on the Acumen Explorer.
Red and green cell populations were determined using controls. The number of green cells (pS6) and total number of cells (red) were then counted and the percentage of green cells was calculated. Percent positive cell data was plotted on a log scale against concentration of compounds and IC50 values were calculated from dose response curves.

pIC50: −log10 of the molar value.

T2 sequence (P31749 whole entry): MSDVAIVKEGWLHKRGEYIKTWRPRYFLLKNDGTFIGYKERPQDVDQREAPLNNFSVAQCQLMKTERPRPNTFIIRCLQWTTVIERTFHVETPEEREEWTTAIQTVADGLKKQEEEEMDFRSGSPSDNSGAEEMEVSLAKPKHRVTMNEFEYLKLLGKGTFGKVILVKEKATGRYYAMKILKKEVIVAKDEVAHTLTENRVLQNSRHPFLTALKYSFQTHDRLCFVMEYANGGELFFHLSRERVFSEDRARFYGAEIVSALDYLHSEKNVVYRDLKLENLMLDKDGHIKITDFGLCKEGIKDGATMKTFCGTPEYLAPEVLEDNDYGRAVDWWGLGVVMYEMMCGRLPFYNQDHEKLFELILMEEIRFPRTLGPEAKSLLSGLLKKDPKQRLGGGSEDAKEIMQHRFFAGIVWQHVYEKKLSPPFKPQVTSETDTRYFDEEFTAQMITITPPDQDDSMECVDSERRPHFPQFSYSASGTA
T1 sequence (P23443 1-421 T412E limits assumed): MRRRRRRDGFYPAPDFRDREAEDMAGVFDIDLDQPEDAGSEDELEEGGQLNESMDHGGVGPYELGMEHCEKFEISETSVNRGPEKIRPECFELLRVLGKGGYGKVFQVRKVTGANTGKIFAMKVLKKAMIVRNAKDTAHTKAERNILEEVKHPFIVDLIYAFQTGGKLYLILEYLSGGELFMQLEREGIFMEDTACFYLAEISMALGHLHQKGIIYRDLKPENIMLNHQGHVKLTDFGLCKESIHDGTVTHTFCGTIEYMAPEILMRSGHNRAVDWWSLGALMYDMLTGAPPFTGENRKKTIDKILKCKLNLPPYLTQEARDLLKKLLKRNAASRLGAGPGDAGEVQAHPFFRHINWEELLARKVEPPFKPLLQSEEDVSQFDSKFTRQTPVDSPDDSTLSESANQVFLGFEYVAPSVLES
T3 sequence (Q96GD4 whole entry, the tested form may be a part): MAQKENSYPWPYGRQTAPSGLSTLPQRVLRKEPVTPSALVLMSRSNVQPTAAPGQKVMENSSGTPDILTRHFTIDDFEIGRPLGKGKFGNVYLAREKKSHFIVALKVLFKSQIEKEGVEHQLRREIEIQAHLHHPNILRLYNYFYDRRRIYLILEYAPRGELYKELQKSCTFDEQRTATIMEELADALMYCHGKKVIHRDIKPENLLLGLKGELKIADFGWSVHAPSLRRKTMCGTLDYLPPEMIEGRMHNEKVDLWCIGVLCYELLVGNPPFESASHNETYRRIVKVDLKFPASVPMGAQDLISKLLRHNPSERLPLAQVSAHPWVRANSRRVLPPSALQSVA
T3 sequence (Q9NQS7 803-918 partner limits assumed): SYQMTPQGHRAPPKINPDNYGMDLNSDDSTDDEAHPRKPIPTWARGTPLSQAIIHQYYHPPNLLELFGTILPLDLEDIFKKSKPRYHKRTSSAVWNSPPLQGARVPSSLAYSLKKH

Consider `NC(=O)c1cccc2c(N[C@H](CN3CCC3)c3cccc(F)c3)ncnc12` [Example 1, 4-[(S)-2-Azetidin-1-yl-1-(3-fluorophenyl)-ethylamino]-quinazoline-8-carboxylic acid amide], for which the pIC50 (usually the IC50 on a negative log10 scale, so that one unit is a factor of ten) at P70S6K (T412E mutant) was 8.25; against Akt1 it was 7.66; at Aurora B, 7.35; with pS6 MDA-MB-468, 7.15. For the same compound, on Aurora B (ratio of Aurora B to p70S6K inhibition), the “Aurora B/p70S6K inhibitory ratio” value was found to be 28.
In the case of `NC(=O)c1cccc2c(N[C@H](CN3CCC3)c3cccc(Cl)c3)ncnc12` [Example 2, 4-[(S)-2-Azetidin-1-yl-1-(3-chlorophenyl)-ethylamino]-quinazoline-8-carboxylic acid amide], the pIC50 on P70S6K (T412E mutant) is 8.96; against Akt1, 8.00; on Aurora B, 7.33; with pS6 MDA-MB-468, 7.80.
In the case of `NC(=O)c1cccc2c(N[C@H](CN3CCC3)c3ccc(F)cc3)ncnc12` [Example 3, 4-[(S)-2-Azetidin-1-yl-1-(4-fluorophenyl)-ethylamino]-quinazoline-8-carboxylic acid amide], the pIC50 at P70S6K (T412E mutant) was 8.11; on Akt1, 7.64; at Aurora B it was 7.39; in the assay with pS6 MDA-MB-468, 6.99.
For `NC(=O)c1cccc2c(N[C@H](CN3CCC3)c3ccc(F)c(F)c3)ncnc12` [Example 4, 4-[(S)-2-Azetidin-1-yl-1-(3,4-difluorophenyl)-ethylamino]-quinazoline-8-carboxylic acid amide], in that order: 8.92, 8.39, 7.25 and 7.13.
`NC(=O)c1cccc2c(N[C@H](CN3CCC3)c3ccccc3)ncnc12` [Example 21, 4-[(S)-2-Azetidin-1-yl-1-phenyl-ethylamino]-quinazoline-8-carboxylic acid amide]: the pIC50 on P70S6K (T412E mutant) is 7.96; in the assay with pS6 MDA-MB-468, 5.51.
Consider `NC(=O)c1cccc2c(N[C@H](CN3CC(F)C3)c3cccc(Cl)c3)ncnc12` [Example 22, 4-[(S)-2-(3-Fluoro-azetidin-1-yl)-1-(3-chlorophenyl)-ethylamino]-quinazoline-8-carboxylic acid amide], for which the negative logarithm of the IC50 (pIC50) at P70S6K (T412E mutant) is 8.62; against Akt1, 7.14; with pS6 MDA-MB-468, 6.49.
Regarding `NC(=O)c1cccc2c(N[C@H](CN3CCC3)c3ccc(OC(F)(F)F)c(Cl)c3)ncnc12` [Example 28, 4-[(S)-2-Azetidin-1-yl-1-(3-chloro-4-trifluoromethoxy-phenyl)-ethylamino]-quinazoline-8-carboxylic acid amide], the pIC50 on P70S6K (T412E mutant) is 8.62; against Aurora B, 6.16; in the assay with pS6 MDA-MB-468, 7.21.
Turning to `NC(=O)c1cccc2c(N[C@H](CN3CCC3)c3ccc(Cl)c(F)c3)ncnc12` [Example 29, 4-[(S)-2-Azetidin-1-yl-1-(4-chloro-3-fluoro-phenyl)-ethylamino]-quinazoline-8-carboxylic acid amide], the pIC50 on P70S6K (T412E mutant) was 8.80; at Akt1, 8.11; in the assay with pS6 MDA-MB-468, 7.72.
Take `NC(=O)c1cccc2c(N[C@H](CN3CC(F)(F)C3)c3ccc(Cl)cc3)ncnc12` [Example 32, 4-[(S)-1-(4-Chloro-phenyl)-2-(3,3-difluoro-azetidin-1-yl)-ethylamino]-quinazoline-8-carboxylic acid amide]: the pIC50 on P70S6K (T412E mutant) was 7.38; against Aurora B it was 6.47; with pS6 MDA-MB-468, less than 8.00.
Take `NC(=O)c1cccc2c(N[C@H](CN3CC(O)C3)c3ccc(F)c(F)c3)ncnc12` [Example 33, 4-[(S)-1-(3,4-Difluoro-phenyl)-2-(3-hydroxy-azetidin-1-yl)-ethylamino]-quinazoline-8-carboxylic acid amide]: the pIC50 at P70S6K (T412E mutant) is 8.34; against Aurora B, 6.68.
On to `CC(C)c1ccc([C@@H](CN2CCC2)Nc2ncnc3c(C(N)=O)cccc23)cc1` [Example 34, 4-[(S)-2-Azetidin-1-yl-1-(4-isopropylphenyl)-ethylamino]-quinazoline-8-carboxylic acid amide], for which the pIC50 at P70S6K (T412E mutant) was 9.10; with pS6 MDA-MB-468 it was 7.20.
For `NC(=O)c1ccc([C@@H](CN2CCC2)Nc2ncnc3c(C(N)=O)cccc23)cc1` [Example 35, 4-[(S)-2-Azetidin-1-yl-1-(4-carbamoylphenyl)-ethylamino]-quinazoline-8-carboxylic acid amide], in that order: 8.07 and 6.24.
As to `CC(C)Oc1ccc([C@@H](CN2CCC2)Nc2ncnc3c(C(N)=O)cccc23)cc1` [Example 36, 4-[(S)-2-Azetidin-1-yl-1-(4-isopropoxyphenyl)-ethylamino]-quinazoline-8-carboxylic acid amide], the pIC50 on P70S6K (T412E mutant) was 6.40. In addition, the IC50 (commonly the concentration that inhibits the measured activity by half) in the assay on pS6 MDA-MB-468 was greater than 10 µM.
Take `COc1cc([C@@H](CN2CCC2)Nc2ncnc3c(C(N)=O)cccc23)cc(F)c1F` [Example 40, 4-[(S)-2-Azetidin-1-yl-1-(3,4-difluoro-5-methoxyphenyl)-ethylamino]-quinazoline-8-carboxylic acid amide]: the results for the pIC50 on P70S6K (T412E mutant) and against Aurora B were 6.89 and less than 9.00, respectively. Also, the IC50 with pS6 MDA-MB-468 was greater than 10 µM.
For the compound `NC(=O)c1cc(F)cc2c(N[C@H](CN3CCC3)c3ccc(Cl)c(F)c3)ncnc12` [Example 51, 4-[(S)-2-Azetidin-1-yl-1-(4-chloro-3-fluoro-phenyl)-ethylamino]-6-fluoro-quinazoline-8-carboxylic acid amide], the pIC50 is 9.00 on P70S6K (T412E mutant), 7.27 against Aurora B and 7.19 in the assay with pS6 MDA-MB-468.

(Values after US8946247B2, “Quinazoline carboxamide azetidines” (Merck Patent GmbH, priority 2010, dated 2015).)
